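Five concentrations, 48 hours, 96-well plates. GI50 = concentration required for 50% inhibition of growth.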 Activity calls are given as the source filed them. Rule as the data show it: active = GI50 up to about 1.1 µM and inactive = higher.

Some test systems named below: SK-MEL-2; OVCAR-3; SNB-19; SNB-75; M14; SF-295; T47D; HCT-15; COLO 205; A549; OVCAR-4; PC-3; 786-0; UACC-62; UACC-257; SK-MEL-28; A498; OVCAR-8; UO-31; HCT-116.
What all share (assay): NCI tumour cell line growth inhibition, 48 h

In the case of `CN(C)c1ccc(/C=c2/c3ccccc3n3c2cc(C24CC5CC(CC(C5)C2)C4)[n+]3C)cc1`, the GI50 was 0.313 µM (active) in the experiment on SK-MEL-2; 0.476 µM (active) in the experiment on OVCAR-3; 0.266 µM (active) in the experiment on SNB-19; 0.394 µM (active) in the experiment with SNB-75; 0.32 µM (active) in the experiment on M14; 0.32 µM (active) in the experiment with SF-295. In addition, the GI50 was 0.124 µM (active) in the experiment with T47D; 0.446 µM in the experiment with HCT-15; 0.0877 µM (active) in the experiment with COLO 205; 0.205 µM (active) with A549; 0.337 µM (active) with OVCAR-4; 0.125 µM (active) in the experiment with PC-3. The GI50 with 786-0 is 0.126 µM (active); in the experiment with UACC-62, 0.345 µM (active); in the experiment with UACC-257, 0.251 µM (active); in the experiment with SK-MEL-28, 0.643 µM (active); in the experiment on A498, 0.314 µM (active); in the experiment with OVCAR-8 it was 0.129 µM (active). Also, the GI50 in the experiment on UO-31 was 0.29 µM (active); in the experiment with HCT-116 it was 0.0828 µM (active).
For `COc1ccc2c(C)cc(N/N=C/c3ccc(C)s3)nc2c1`, the GI50 in the experiment on SK-MEL-2 was 19.1 µM (inactive); in the experiment on OVCAR-3, 2.94 µM (inactive); with SNB-19, 25.4 µM (inactive); with SNB-75, 20.9 µM (inactive); with M14 it was 6.55 µM (inactive); in the experiment with SF-295, 9.62 µM (inactive). Also, the GI50 with T47D was 6.53 µM (inactive); with HCT-15, 4.21 µM; in the experiment on COLO 205, 2.81 µM (inactive); in the experiment on A549, 7.91 µM (inactive); in the experiment with OVCAR-4, 11.1 µM (inactive); with PC-3, 14.1 µM (inactive). The GI50 with 786-0 is 5.89 µM (inactive); with UACC-62, 20.1 µM (inactive); in the experiment on UACC-257, 11 µM (inactive); with SK-MEL-28, 24.7 µM (inactive); in the experiment on A498, 19.4 µM (inactive); in the experiment on OVCAR-8 it was 15.2 µM (inactive). Also, the GI50 with UO-31 is 13.6 µM (inactive); with HCT-116, 5.92 µM (inactive).
Take `O=C(NCCCCN(CCCNC(=O)C(F)(F)F)Cc1ccccc1)C(F)(F)F`: the GI50 in the experiment on SK-MEL-2, with OVCAR-3, in the experiment on SNB-19, with SNB-75, with M14 and in the experiment with SF-295 was > 100 µM (inactive) in each case. For the same compound, the GI50 in the experiment on T47D is > 100 µM (inactive); in the experiment on HCT-15 it was greater than 100 µM; in the experiment with COLO 205, > 100 µM (inactive); in the experiment with A549, > 100 µM (inactive); in the experiment with OVCAR-4, > 100 µM (inactive); in the experiment on PC-3 it was 92.3 µM (inactive). Further, the GI50 in the experiment on 786-0, in the experiment with UACC-62, in the experiment on UACC-257, in the experiment on SK-MEL-28, with A498 and with OVCAR-8 was > 100 µM (inactive) each time. The GI50 in the experiment on UO-31 and with HCT-116 was > 100 µM (inactive) each time.
For `CC1(C)OC(=O)C(C)(C)OC1=O`, the GI50 in the experiment with SK-MEL-2, with OVCAR-3, with SNB-19, with SNB-75, in the experiment with M14 and with SF-295 was > 100 µM (inactive) each time. Besides, the GI50 was > 100 µM (inactive) in the experiment on T47D; greater than 100 µM in the experiment with HCT-15; > 100 µM (inactive) in the experiment on COLO 205; > 100 µM (inactive) with A549; > 100 µM (inactive) in the experiment with OVCAR-4; > 100 µM (inactive) in the experiment on PC-3. The GI50 with 786-0, with UACC-62, with UACC-257, in the experiment with SK-MEL-28, in the experiment on A498 and in the experiment on OVCAR-8 was > 100 µM (inactive) in each case. For the same compound, the GI50 in the experiment on UO-31 and in the experiment with HCT-116 was > 100 µM (inactive) throughout.
Regarding `COC1=CC(=O)c2c(O)c3c(c(O)c2C1=O)C[C@](C)(O)C[C@@H]3O`, the GI50 in the experiment with SK-MEL-2 is 3.35 µM (inactive); in the experiment with OVCAR-3 it was 0.861 µM (active); with SNB-19 it was 4.92 µM (inactive); with SNB-75, 9.42 µM (inactive); in the experiment with M14, 2.6 µM (inactive); with SF-295 it was 3.51 µM (inactive). Further, the GI50 with T47D was 6.98 µM (inactive); with HCT-15, 4.01 µM; with COLO 205 it was 1.77 µM (inactive); with A549 it was 2.93 µM (inactive); with OVCAR-4 it was 3.72 µM (inactive); in the experiment with PC-3, 3.4 µM (inactive). Also, the GI50 is 7.76 µM (inactive) in the experiment with 786-0; 1.46 µM (inactive) in the experiment with UACC-62; 1.99 µM (inactive) in the experiment on UACC-257; 7.05 µM (inactive) in the experiment with SK-MEL-28; 7.66 µM (inactive) in the experiment with A498; 4.07 µM (inactive) in the experiment with OVCAR-8. Also, the GI50 is 11.4 µM (inactive) with UO-31 and 2.61 µM (inactive) with HCT-116.
Regarding `COc1cc2c3c(c1)CCCN3CCC2`, the GI50 in the experiment on SK-MEL-2, with OVCAR-3, in the experiment on SNB-19, in the experiment on SNB-75, in the experiment on M14 and in the experiment with SF-295 was > 10 µM (inactive) throughout. Also, the GI50 with T47D is > 10 µM (inactive); in the experiment with HCT-15, greater than 10 µM; in the experiment on COLO 205, > 10 µM (inactive); in the experiment on A549, > 10 µM (inactive); in the experiment on OVCAR-4, > 10 µM (inactive); in the experiment with PC-3, > 10 µM (inactive). Besides, the GI50 in the experiment on 786-0, in the experiment on UACC-62, in the experiment with UACC-257, with SK-MEL-28, with A498 and in the experiment with OVCAR-8 was > 10 µM (inactive) each time. Further, the GI50 with UO-31 and in the experiment with HCT-116 was > 10 µM (inactive) throughout.
As for `C/C=C(\C)CC/C=C/CO[Si](C)(C)C(C)(C)C`, the GI50 in the experiment on SK-MEL-2 was 35.4 µM (inactive); with OVCAR-3, 54.7 µM (inactive); with SNB-19, > 100 µM (inactive); in the experiment on SNB-75, > 100 µM (inactive); in the experiment with M14 it was > 100 µM (inactive); with SF-295 it was 79.1 µM (inactive). Besides, the GI50 in the experiment with T47D is > 100 µM (inactive); in the experiment with HCT-15 it was greater than 100 µM; with COLO 205, > 100 µM (inactive); in the experiment with A549, 39.4 µM (inactive); in the experiment on OVCAR-4, > 100 µM (inactive); in the experiment on PC-3 it was > 100 µM (inactive). The GI50 with 786-0 was > 100 µM (inactive); in the experiment with UACC-62, > 100 µM (inactive); in the experiment with UACC-257, 69 µM (inactive); in the experiment on SK-MEL-28, > 100 µM (inactive); with A498 it was > 100 µM (inactive); in the experiment with OVCAR-8, > 100 µM (inactive). The GI50 with UO-31 was > 100 µM (inactive); in the experiment with HCT-116, 46.8 µM (inactive).
In the case of `CC(N)/C(N)=N/O` (stereo not given), the GI50 in the experiment with SK-MEL-2, with OVCAR-3, with SNB-19, in the experiment on SNB-75, with M14 and in the experiment with SF-295 was > 100 µM (inactive) in each case. The GI50 in the experiment with T47D is > 100 µM (inactive); in the experiment with HCT-15, greater than 100 µM; in the experiment with COLO 205, > 100 µM (inactive); in the experiment on A549, > 100 µM (inactive); in the experiment on OVCAR-4, > 100 µM (inactive); with PC-3, > 100 µM (inactive). For the same compound, the GI50 in the experiment on 786-0, in the experiment with UACC-62, in the experiment with UACC-257, in the experiment on SK-MEL-28, with A498 and in the experiment on OVCAR-8 was > 100 µM (inactive) in each case. Besides, the GI50 with UO-31 and in the experiment with HCT-116 was > 100 µM (inactive) each time.
Consider `CC(=O)OCC1OC(OC2CC3C(C)(C)C(O)CC[C@]3(C)C3CCC45CC4(CCC5[C@@H](C)CC(O)C(O)C(C)(C)O)[C@]23C)C(O)C(O)C1O` (stereo not given in full), for which the GI50 in the experiment with SK-MEL-2, in the experiment with OVCAR-3, in the experiment on SNB-19, with SNB-75, in the experiment with M14 and with SF-295 was > 10 µM (inactive) each time. The GI50 in the experiment on T47D is > 10 µM (inactive); with HCT-15, greater than 10 µM; with COLO 205, > 10 µM (inactive); in the experiment on A549, > 10 µM (inactive); in the experiment with OVCAR-4 it was > 10 µM (inactive); in the experiment with PC-3, > 10 µM (inactive). Moreover, the GI50 in the experiment with 786-0, with UACC-62, with UACC-257, in the experiment with SK-MEL-28, with A498 and in the experiment on OVCAR-8 was > 10 µM (inactive) each time. For the same compound, the GI50 in the experiment with UO-31 and with HCT-116 was > 10 µM (inactive) in each case.
On to `O=C(/C=C/c1cccc(Br)c1)N1CCN(CCOC(c2ccccc2)c2ccccc2)CC1`, for which the GI50 in the experiment with SK-MEL-2 is 43.6 µM (inactive); with OVCAR-3, 50.5 µM (inactive); in the experiment on SNB-19 it was > 100 µM (inactive); with SNB-75 it was 26.2 µM (inactive); in the experiment on M14, 62.2 µM (inactive); in the experiment with SF-295 it was 53.7 µM (inactive). The GI50 was 23.6 µM (inactive) in the experiment on T47D; 27.6 µM in the experiment with HCT-15; 17.5 µM (inactive) in the experiment on COLO 205; 43.2 µM (inactive) with A549; 63.2 µM (inactive) with OVCAR-4; 44.1 µM (inactive) in the experiment with PC-3. For the same compound, the GI50 is 40.1 µM (inactive) with 786-0; 25.9 µM (inactive) in the experiment on UACC-62; 63.5 µM (inactive) in the experiment with UACC-257; > 100 µM (inactive) in the experiment with SK-MEL-28; 44.9 µM (inactive) with A498; 55.5 µM (inactive) in the experiment with OVCAR-8. The values for the GI50 in the experiment on UO-31 and with HCT-116 were 25.4 µM (inactive) and 29.3 µM (inactive), respectively.

For the origin of these results see ChEMBL document CHEMBL1201862, “PubChem BioAssay data set” (2004).
